{"source": "patent US20220000952A1", "about": "“METHOD PREPARING ANTRODIA CINNAMOMEA EXTRACT AND ANTRODIA CINNAMOMEA COMPOSITION, AND PHARMACEUTICAL COMPOSITION” (priority 2018, published 2022)", "system": "bone marrow inhibition of chemotherapeutic drug Cisplatin", "experiment": "Efficacy test for improving the bone marrow inhibition of chemotherapeutic drug cisplatin in C57BL/6 immune normal mice", "assay_type": "in vivo", "conditions": "cisplatin alone 20 mg/kg i.p. day 1", "description": "The animals used in this study were C57B116 mice which were commercially available from Taiwan Experimental Animal Centers and six weeks old. The feeding temperature was controlled to be 25±2° C., the illumination time was 08: 00-20: 00, sufficient feed and drinking water were provided daily, and the padding was replaced twice a week.\nThe cisplatin (cis, 20 mg/kg) was administered by intraperitoneal injection on the first day. The Antrodia cinnamomea composition (400 mg/kg) was administered in a tube-teed manner on the 1st to 5th day, and the time of tube feeding on the first day was 4 hours after the chemotherapeutic drug was administered. The animal groups were the control group,Cis and Antrodia cinnamomea compositions (AC) respectively, with 6 mice in each group and 18 mice in 3 groups.\nThe experimental animals were sacrificed in a CO2 manner on the sixth day, the thigh bones of the mice were surgically removed, both ends of the bones were cut, bone marrow cells were flushed out, and after centrifugation and washing, the cells were added to MethoCult M3334 medium or MethoCult M3234 medium, and allowed to stand in a humidified incubator containing 5% CO2 at 37° C. and cultured, the former was cultured for 48 hours to observe by microscope and calculate the number of CFU-E (Colony-forming unit-erythroid) colonies, and the latter was cultured for 7 days to observe by microscope and calculate the number of CFU-GM(Colony-forming unit-granulocyte, macrophage) colonies. The colony numbers of CFU-E and CFU-GM were counted by observation in the whole field of view.\nBefore the experimental animals were sacrificed, the whole blood was collected in a cheek blood collection manner, and anticoagulant whole blood was used for complete blood count (CBC) to determine the number of peripheral white blood cells.\nOne-way analysis of variance (One-Way ANOVA) was used for data analysis. When the analysis result reached a significant level, Fisher LSD was used for subsequent comparison."}
{"smiles": "N.N.[Cl][Pt][Cl]", "note": "[cisplatin]", "values": [{"measurement": "number of white blood cells (peripheral blood)", "setting": "FIG. 5", "result": "can reduce the number of white blood cells"}, {"measurement": "number of CFU-GM (myeloid leukocyte precursor cells)", "setting": "FIG. 6", "result": "inhibits the number of myeloid leukocyte precursor cells CFU-GM"}, {"measurement": "number of CFU-E (bone marrow red blood cell precursor cells)", "setting": "FIG. 7", "result": "can inhibit the number of bone marrow red blood cell precursor cells CFU-E"}]}
